# Laboratory results published in patent US20230157994A1 (priority 2020, published 2023).
# Where “and” joins values, the source holds several entries; their conditions need not be identical. Equal entries are not always repeated. Where two headings read alike, the source gives them in different places.
# Assays:
# SARS-CoV-2 = details: for body weight loss kinetic: versus vehicle mice
# Citrullinated histone H3 = details: for effect on level of citrullinated histone H3 / NETosis: RNA virus infected mice, 3 mg/kg/day, versus infected vehicle group
# [1] = tested on: neutrophils (DAPI-CD16+, DAPI-CD16+CXCR4-, DAPI-CD16+CXCR4+); details: for % of neutrophils' migration decrease with plerixafor vs vehicle in response to COVID-19 serum: DAPI-CD16+CXCR4+ cells
# Procedure: Neutrophils were isolated from 6 patients of the COBRA cohort (COPD and asthma patient cohort). […] Cells were next plated in the upper compartment of a modified Boyden chamber for migration assay in 0.2 mL HBSS, containing 0.5% HSA medium. HBSS, 0.5% HSA or HBSS, 0.5% HSA+sera (10% diluted) from severe COVID-19 patients were added to the bottom compartment of each well. […] Cell identities and counts were analysed by FACS method.
# Neutrophils are isolated according to the method described by Hard, et al., (Infiltrated neutrophils acquire novel chemokine receptor expression and chemokine responsiveness in chronic inflammatory lung diseases. J. Immunol. Baltim. Md 1950. 181:8053-8067). Neutrophils were freshly isolated from blood of COPD patients over isotonic Percoll density gradient. The neutrophils were recovered, washed twice with HBSS containing 20 mM HEPES and 0.1% (w/v) BSA and resuspended in HBSS, 20 mM HEPES, and 0.1% (w/v) BSA at a cell concentration of 5×10^5 in 0.2 mL.
# Neutrophil migration was assessed using a Boyden chamber assay, using transwell inserts (pore size 8 um). A total of 5x 10^5 neutrophils cells in 0.2 mL HBSS, containing 0.5% HSA were added to the upper compartment of each well. […] HBSS, 0.5% HSA and Sera (10% diluted) from severe COVID-19 patients was added to the bottom compartment of each well.
# After neutrophils' recovery from lower chamber, FACS tubes were centrifuged 5 min, 4° C. at 500 g. Fixation and permeabilization of cells were as follow: 0.3 mL of Cytofix/Cytoperm were added for 15 min (tube are protected from light). Next, 400 μL of permeabilization buffer was added and cells were processed for centrifugation for 5 min, 4° C., 400 g. Supernatant was discarded, and cells were processed for antibody staining. Cells were incubated 40 min at 4° C. with anti-CD16 to account for all neutrophils, anti-CXCR4 to specifically account for CXCR4 expressing neutrophils. Next, 400 μL of permeabilization buffer was added, and cells were centrifuged 5 min at 4° C., 400 g. After supernatant was discarded, cells were incubated with appropriate secondary antibody for 40 min at 4° C. Finally, cells were incubated with DAPI at 4° C. After DAPI incubation (to exclude dying cells from FACS counts), 400 μL of PBS 1× were added and cells were centrifuged for 5 min at 4° C., 400 g. Cells were resuspended in 300 μL of PBS 1×. To obtain absolute values of migratory cells, flow cytometric counts for each condition were obtained during a constant predetermined time period (1 min).
# Each condition treatment was run in duplicate.
# severe COVID-19 patients = details: estimate for sample size
# Source text: Sample size is based on the following assumptions: • 1. Current estimate of the proportion of patients in ICU with critical stage COVID-19 and requiring mechanical ventilation (50% as per Bichat and Bordeaux CHUs), • 2. […] A two-sided analysis, with α=0.05.
# [2] = tested on: COVID-19-related ARDS patients; details: hypothesis; in combination with best available treatment
# Procedure: Ventilator-free days (VFDs) at 28 days are one of several organ failure-free outcome measures to quantify the efficacy of therapies and interventions. VFDs are typically defined as follows: • a. VFDs=0 if subject dies within 28 days of mechanical ventilation. • b. VFDs=28−x if successfully liberated from ventilation x days after initiation. • c. VFDs=0 if the subject is mechanically ventilated for >28 days.
# 4 groups of patients (placebo, pleri 10, pleri 20, pleri 40 μg/kg bid) will be planned.
# ARDS patients = details: at days 28; cited from earlier work
compound,measurement,setting,value
c1cc(CN2CCCNCCNCCCNCC2)ccc1CN1CCCNCCNCCCNCC1 [plerixafor],body weight loss kinetic,SARS-CoV-2; 10 mg/kg/day,reduced the mice body weight loss kinetic
same,body weight loss kinetic,"SARS-CoV-2; 10 mg/kg/day, listed as Plerixafor",significant reduction of body weight loss kinetic
same,time of death (euthanasia at body weight loss superior to 20%),"SARS-CoV-2; 10 mg/kg/day, versus vehicle, Wilcoxon test p<0.05",Significant difference in time of death
same,average body weight loss,"SARS-CoV-2; day 5 post infection, 10 mg/kg/day twice daily, vehicle 20.43%±2.88%",17.6%±1.28%
same,fraction of treated mice with improved survival,SARS-CoV-2; lethal dose of SARS-CoV-2,"44,44%"
same,improvement of survival,"SARS-CoV-2; lethal dose of SARS-CoV-2, versus vehicle",20%
same,effect on level of citrullinated histone H3 / NETosis,Citrullinated histone H3,significantly reduced
same,effect on level of citrullinated histone H3 / NETosis,Citrullinated histone H3; listed as Plerixafor,slightly decreased
same,Mean Citrullinated Histone H3 in plasma,"Citrullinated histone H3; day 7, RNA virus infected, 3 mg/kg/day SC, infected vehicle 2.124, non infected 0.113",1.428±0.799 absorbance at 450 nm and 1.428 absorbance at 450 nm
same,decrease of CXCR4+ neutrophils migration (mean of 6 patients),[1],75.8%±5.9%
same,migration of CXCR4 negative neutrophils (DAPI-CD16+CXCR4-),[1],no significant effect
same,migration of CXCR4 positive neutrophils (DAPI-CD16+CXCR4+),[1],strongly and reproducibly decreased
same,serum-induced recruitment of neutrophils total population (DAPI-CD16+),[1],did not significantly reduce
same,% of neutrophils' migration decrease with plerixafor vs vehicle in response to COVID-19 serum,"[1]; patient Sg3, 25 μg/mL",86.6%
same,% of neutrophils' migration decrease with plerixafor vs vehicle in response to COVID-19 serum,"[1]; patient Sg87, 25 μg/mL",72.9%
same,% of neutrophils' migration decrease with plerixafor vs vehicle in response to COVID-19 serum,"[1]; patient Sg88, 25 μg/mL",75.5%
same,% of neutrophils' migration decrease with plerixafor vs vehicle in response to COVID-19 serum,"[1]; patient Sg89, 25 μg/mL",70.0%
same,% of neutrophils' migration decrease with plerixafor vs vehicle in response to COVID-19 serum,"[1]; patient Sg92, 25 μg/mL",77.6%
same,% of neutrophils' migration decrease with plerixafor vs vehicle in response to COVID-19 serum,"[1]; patient Sg95, 25 μg/mL",72.4%
same,decrease of proportion of invasive mechanical ventilation versus placebo,severe COVID-19 patients,46%
same,proportion of invasive mechanical ventilation in patients with severe COVID-19,"severe COVID-19 patients; reduced from 50%, 30 μg/kg/hour continuous IV 7 days",27%
same,increase of VFDs (ventilator-free days at 28 days),[2],2 days
Tocilizumab: an anti-IL6 human monoclonal antibody marketed by Genentech under the tradename Actemra for treating rheumatoid arthritis,VFDs (ventilator-free days),ARDS patients,14.86+/−5.36
